Assay results as given in article PMC7414797 (Nature, 2015).
Values after ≈ are worked out from the molar mass of the structure shown. Values joined by “and” are separate entries in the source; they are usually repeats but may differ in a detail not shown here. Equal entries are not always repeated. Where two headings read alike, the source gives them in different places.

Columns and labels:
Staphylococcus aureus = experiment: MIC by broth microdilution; assay type: cell-based; settings: for MIC90: Staphylococcus aureus
Enterococcus faecalis = experiment: MIC by broth microdilution; assay type: cell-based; settings: for MIC Range: Enterococcus faecalis 50% VRE, 10 contemporary clinical isolates; for MIC90: Enterococcus faecalis, VRE
Enterococcus faecium = experiment: MIC by broth microdilution; assay type: cell-based; settings: for MIC Range: E. faecium 50%VRE, 10 contemporary clinical isolates; for MIC90: Enterococcus faecium, VRE
Streptococcus pneumoniae = experiment: MIC by broth microdilution; assay type: cell-based; settings: for MIC90: Streptococcus pneumoniae, PRSP
Streptococcus pyogenes = experiment: MIC by broth microdilution; assay type: cell-based; settings: for MIC90: Streptococcus pyogenes
Streptococcus agalactiae = experiment: MIC by broth microdilution; assay type: cell-based; settings: for MIC90: Streptococcus agalactiae
[1] = tested on: Viridans group streptococci; experiment: MIC by broth microdilution; assay type: cell-based
S. epidermidis = experiment: MIC by broth microdilution; assay type: cell-based; settings: for MIC90: Staphylococcus epidermidis
S. aureus MRSA ATCC33591 = experiment: Mouse sepsis protection model; assay type: in vivo, mice; settings: MRSA septicemia, single i.v. dose 1 h post-infection, survival at 48 h
[2] = S. aureus Daptomycin^NS, 5 contemporary clinical isolates
[3] = S. aureus MRSA, 20 contemporary clinical isolates
[4] = S. aureus VISA, 10 contemporary clinical isolates
[5] = Staphylococcus aureus MSSA, 20 contemporary clinical isolates
[6] = S. pyogenes, 10 contemporary clinical isolates
[7] = S. agalactiae, 10 contemporary clinical isolates
[8] = Viridans Group Streptococci, 5 isolates (S. sanguis, S. mitis, S. anginosus, S. intermedius, S. salivarius)
[9] = S. epidermidis, 20 contemporary clinical isolates

Structure (SMILES) | MIC Range (Staphylococcus aureus; [2]) [mg/L] | MIC Range (Staphylococcus aureus; [3]) [mg/L] | MIC Range (Staphylococcus aureus; [4]) [mg/L] | MIC Range (Staphylococcus aureus; [5]) [mg/L] | MIC90 (Staphylococcus aureus; MRSA) [mg/L] | MIC90 (Staphylococcus aureus; MSSA) [mg/L] | MIC90 (Staphylococcus aureus; VISA) [mg/L] | MIC Range (Enterococcus faecalis) [mg/L] | MIC90 (Enterococcus faecalis) [mg/L] | MIC Range (Enterococcus faecium) [mg/L] | MIC90 (Enterococcus faecium) [mg/L] | MIC90 (Streptococcus pneumoniae) [mg/L] | MIC Range (Streptococcus pyogenes; [6]) [mg/L] | MIC90 (Streptococcus pyogenes) [mg/L] | MIC Range (Streptococcus agalactiae; [7]) [mg/L] | MIC90 (Streptococcus agalactiae) [mg/L] | MIC Range [1, 8] [mg/L] | MIC Range (S. epidermidis; [9]) [mg/L] | MIC90 (S. epidermidis) [mg/L] | other results
CCCCCCCCCC(=O)N[C@@H](Cc1c[nH]c2ccccc12)C(=O)N[C@H](CC(N)=O)C(=O)N[C@@H](CC(=O)O)C(=O)N[C@@H]1C(=O)NCC(=O)N[C@@H](CCCN)C(=O)N[C@@H](CC(=O)O)C(=O)N[C@H](C)C(=O)N[C@@H](CC(=O)O)C(=O)NCC(=O)N[C@H](CO)C(=O)N[C@@H]([C@H](C)CC(=O)O)C(=O)N[C@@H](CC(=O)c2ccccc2N)C(=O)O[C@@H]1C [Daptomycin] | 2 to 8 | 0.12 to 0.25 | 0.25 to 1 | 0.12 to 0.25 | 0.25 (≈ 0.154 µM) | 0.25 (≈ 0.154 µM) | 1 (≈ 0.617 µM) | 0.12 to 8 | 0.5 (≈ 0.309 µM) | 0.5 to 1 | 1 (≈ 0.617 µM) | ≤ 0.03 | ≤0.03 to 0.06 | 0.06 (≈ 0.037 µM) | 0.06 to 0.25 | 0.12 (≈ 0.074 µM) | 0.06 to 0.25 | 0.06 to 0.25 | 0.25 (≈ 0.154 µM) | MIC Range (Staphylococcus aureus; S. aureus Linezolid^R, 5 contemporary clinical isolates): 0.25 to 0.5 mg/L
CC(=O)NC[C@H]1CN(c2ccc(N3CCOCC3)c(F)c2)C(=O)O1 [Linezolid] | 1 to 32 | 2 to 4 | 1 to 4 | 2 to 4 | 4 (≈ 11.9 µM) | 4 (≈ 11.9 µM) | 2 (≈ 5.93 µM) | 1 to 2 | 2 (≈ 5.93 µM) | 1 to 2 | 2 (≈ 5.93 µM) | 1 (≈ 2.96 µM) | 0.5 to 1 | 1 (≈ 2.96 µM) | 0.5 to 2 | 1 (≈ 2.96 µM) | 0.5 to 1 | 1 to 8 | 2 (≈ 5.93 µM) | 
CN[C@H](CC(C)C)C(=O)N[C@H]1C(=O)N[C@@H](CC(N)=O)C(=O)N[C@H]2C(=O)N[C@H]3C(=O)N[C@H](C(=O)N[C@H](C(=O)O)c4cc(O)cc(O)c4-c4cc3ccc4O)[C@H](O)c3ccc(c(Cl)c3)Oc3cc2cc(c3O[C@@H]2O[C@H](CO)[C@@H](O)[C@H](O)[C@H]2O[C@H]2C[C@](C)(N)[C@H](O)[C@H](C)O2)Oc2ccc(cc2Cl)[C@H]1O [Vancomycin, vancomycin] |  |  |  |  | 1 (≈ 0.69 µM) | 1 (≈ 0.69 µM) | 8 (≈ 5.52 µM) |  | > 32 |  | > 32 | 0.25 (≈ 0.173 µM) |  | 0.25 (≈ 0.173 µM) |  | 0.5 (≈ 0.345 µM) |  |  | 2 (≈ 1.38 µM) | MIC Range (Staphylococcus aureus): 0.5 to 1 mg/L and 0.5 to 2 mg/L and 1 to 8 mg/L and 0.5 to 8 mg/L and 1 mg/L; MIC Range (Streptococcus pneumoniae): 0.12 to 0.5 mg/L; MIC Range (Streptococcus pyogenes): 0.25 mg/L (≈ 0.173 µM); MIC Range (Streptococcus agalactiae): 0.25 to 0.5 mg/L; MIC Range [1]: 0.25 to 0.5 mg/L; MIC Range (S. epidermidis): 1 to 2 mg/L; PD50 (protective dose at which half of the animals survive) (S. aureus MRSA ATCC33591): 2.75 mg per kg
